# Test results: publication PMC9487510, “A Novel Oral GyrB/ParE Dual Binding Inhibitor Effective against Multidrug-Resistant Neisseria gonorrhoeae and Other High-Threat Pathogens” (Antimicrobial Agents and Chemotherapy, 2022)
# Read-outs that look alike come from different tables or passages of the source.
# Test system: MRSA
# Experiment: MIC, in vitro susceptibility testing (CLSI)
# Assay type: cell-based, Staphylococcus aureus
# Details: Staphylococcus aureus, MRSA; for MIC: read-out: MIC
smiles,measurement,setting,value
CNc1cc(F)cc2c1[nH]c1nc(Oc3cnc(C)nc3)nc(N3CCC4(CC3)CO[C@@H](CO)C4)c12 [JSF-2414],MIC,strain 2 13 43,0.062 mg/L
same,MIC,strain 2 13 47,0.125 mg/L
same,MIC,strain 2 13 48,0.002 mg/L
same,MIC,strain 2 13 52,0.002 mg/L
same,MIC,strain 2 13 53,0.062 mg/L
same,MIC,strain 2 13 54,0.062 mg/L
same,MIC,strain 2 13 55,0.062 mg/L
same,MIC,strain 2 13 56,0.062 mg/L
same,MIC,strain 2 13 57,0.016 mg/L
same,MIC,strain 2 13 58,0.031 mg/L
same,MIC,strain 2 35 90,0.016 mg/L
same,MIC,strain 2 36 04,0.031 mg/L
same,MIC,strain 2 36 17,0.031 mg/L
same,MIC,strain 2 36 31,0.031 mg/L
same,MIC,strain 2 66 36,0.016 mg/L
same,MIC,strain 2 66 41,0.016 mg/L
same,MIC,strain 2 78 41,0.062 mg/L
same,MIC,strain 2 78 62,0.031 mg/L
same,MIC,strain 2 78 66,0.031 mg/L
same,MIC,strain 2 78 96,0.031 mg/L
same,MIC,strain 2 79 17,0.062 mg/L
same,MIC,strain 2 79 22,0.031 mg/L
same,MIC,strain 2 79 25,0.031 mg/L
same,MIC,strain 2 79 29,0.016 mg/L
same,MIC,strain 2 79 33,0.031 mg/L
same,MIC,strain 2 79 65,0.062 mg/L
same,MIC,strain 2 79 67 (first listing),0.031 mg/L
same,MIC,strain 2 79 67 (second listing),0.031 mg/L
same,MIC,strain 2 80 36,0.062 mg/L
same,MIC,strain 2 80 46,0.031 mg/L
same,MIC,strain 2 80 48,0.031 mg/L
same,MIC,strain 2 80 62,0.031 mg/L
same,MIC,strain 2 80 67,0.062 mg/L
same,MIC,strain 2 81 54,0.031 mg/L
same,MIC,strain 2 85 12,0.016 mg/L
same,MIC,strain 2 85 13,0.008 mg/L
same,MIC,strain 2 85 14,0.031 mg/L
same,MIC,strain 2 85 32,0.062 mg/L
same,MIC,strain 2 87 54,0.031 mg/L
same,MIC,strain 2 87 55,0.031 mg/L
same,MIC,strain 2 87 77,0.016 mg/L
same,MIC,strain 2 88 47,0.016 mg/L
same,MIC,strain 2 88 71,0.016 mg/L
same,MIC,strain 2 88 83,0.008 mg/L
same,MIC,strain 2 88 84,0.004 mg/L
same,MIC,strain 2 89 13,0.016 mg/L
same,MIC,strain 2 89 17,0.008 mg/L
same,MIC,strain 2 90 62,0.016 mg/L
same,MIC,strain 2 90 86,0.016 mg/L
same,MIC,strain 2 90 98,0.031 mg/L
same,MIC,strain 2 91 55,0.031 mg/L
same,MIC,strain 2 91 79,0.016 mg/L
same,MIC,strain 2 91 84,0.031 mg/L
same,MIC,strain 2 93 06,0.062 mg/L
same,MIC,strain 2 93 24,0.031 mg/L
same,MIC,strain 2 93 30,0.031 mg/L
same,MIC,strain 2 95 78,0.031 mg/L
same,MIC,strain 2 96 95,0.031 mg/L
same,MIC,strain 2 97 09,0.016 mg/L
same,MIC,strain 3 03 39,0.016 mg/L
same,MIC,strain 3 65 31,0.016 mg/L
same,MIC,strain 3 65 39,0.016 mg/L
same,MIC,strain 3 80 43,0.002 mg/L
same,MIC,strain 3 80 68,0.008 mg/L
same,MIC,strain USA400Padm,0.062 mg/L
same,MIC50,101 strains,0.031 mg/L
same,MIC90,101 strains,0.062 mg/L
